Experimental data reported in US11807644B2 (PMV Pharmaceuticals, Inc., priority 2020, dated 2023).

target: T1, recombinant His-tag Y220C p53 DBD protein (Homo sapiens, UniProt P04637, Y220C); assay: In vitro DNA binding activity assay (TR-FRET): binding of His-tag Y220C p53 DBD to biotin-labeled consensus DNA; format: biochemical; conditions: SC150 = concentration to increase DNA binding by […], His-tag Y220C p53 DBD, biotin-labeled consensus DNA
T1 construct: recombinant His-tag Y220C p53 DBD protein (amino acids #˜94-312)

SMILES	Y220C SC150 (μM)
CCC1(C(=O)NCc2nnc(-c3cc4c(NC5CCN(C)CC5)cccc4n3CC(F)(F)F)s2)CC1 [Compound 74B, 1-ethyl-N-[(5-{4-[(1-methylpiperidin-4-yl)amino]-1-(2,2,2-trifluoroethyl)-1H-indol-2-yl}-1,3,4-thiadiazol-2-yl)methyl]cyclopropane-1-carboxamide]	** (** = 0.1 μM ≤ SC150 < 0.5 μM)
CN1CC[C@@H](Nc2cccc3c2cc(-c2noc(CNC(=O)c4cc5ccccn5c4)n2)n3CC(F)(F)F)[C@@H](F)C1 [Compound 196B, N-{[3-(4-{[(3S,4R)-3-fluoro-1-methylpiperidin-4-yl]amino}-1-(2,2,2-trifluoroethyl)-1H-indol-2-yl)-1,2,4-oxadiazol-5-yl]methyl}indolizine-2-carboxamide]	* (* = 0 μM ≤ SC150 < 0.1 μM)
COc1cc(S(C)(=O)=O)ccc1NCc1nc(-c2cc3c(N[C@@H]4CCNC[C@@H]4F)cccc3n2CC(F)(F)F)no1 (racemic) [Compound 188B, (+/−)-N-[(3R,4S)-3-fluoropiperidin-4-yl]-2-(5-{[(4-methanesulfonyl-2-methoxyphenyl)amino]methyl}-1,2,4-oxadiazol-3-yl)-1-(2,2,2-trifluoroethyl)-1H-indol-4-amine]	* (* = 0 μM ≤ SC150 < 0.1 μM)
CC(C)(C)n1cc(C(=O)NCc2nc(-c3cc4c(N[C@H]5CCCNC5)cccc4n3CC(F)(F)F)no2)cn1 [Compound 353B]	* (* = 0 μM ≤ SC150 < 0.1 μM)
CN1CC[C@@H](Nc2cccc3c2cc(-c2noc(CNC(=O)c4ccn(C5(C)CCOC5)c4)n2)n3CC(F)(F)F)[C@@H](F)C1 (stereo partly drawn) [Compound 401B, N-{[3-(4-{[(3S,4R)-3-fluoro-1-methylpiperidin-4-yl]amino}-1-(2,2,2-trifluoroethyl)-1H-indol-2-yl)-1,2,4-oxadiazol-5-yl]methyl}-1-(3-methyloxolan-3-yl)-1H-pyrrole-3-carboxamide]	* (* = 0 μM ≤ SC150 < 0.1 μM)

same assay, conditions: concentration to increase DNA binding by […], incubated at either 27° C. or 29° C. for 60 min

SMILES	SC150 (μM)
CC(C)(C)OC(=O)NCc1ccc(-c2cc3c(NC4CCS(=O)(=O)CC4)cccc3n2CC(F)(F)F)cc1 [Compound 6A, tert-butyl N-[(4-{4-[(1,1-dioxo-1λ^6-thian-4-yl)amino]-1-(2,2,2-trifluoroethyl)-1H-indol-2-yl}phenyl)methyl]carbamate]	++ (++ = 2 μM ≤ SC150 < 5 μM)
